# Data published in ChEMBL document CHEMBL1201862, “PubChem BioAssay data set” (2004).
#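 A five-concentration, 48-hour dose response in 96-well plates underlies each endpoint, interpolated linearly between surrounding concentrations. The concentration for 50% growth inhibition is given as GI50.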 Activity calls are given as the source filed them. Rule as the data show it: active = GI50 up to about 1.1 µM and inactive = higher.
# Columns and labels:
# Assay in all cases: growth of human tumour cells (NCI), 48 h
# SK-MEL-5 = test system: SK-MEL-5
# MOLT-4 = test system: MOLT-4
# SF-295 = test system: SF-295
# RPMI-8226 = test system: RPMI-8226
# OVCAR-4 = test system: OVCAR-4
# HOP-62 = test system: HOP-62
# HOP-92 = test system: HOP-92
# SNB-75 = test system: SNB-75
# 786-0 = test system: 786-0
# HCC 2998 = test system: HCC 2998
# NCI-H460 = test system: NCI-H460
# NCI-H522 = test system: NCI-H522
# COLO 205 = test system: COLO 205
# SK-OV-3 = test system: SK-OV-3
# UACC-62 = test system: UACC-62
# SW-620 = test system: SW-620
# NCI-H23 = test system: NCI-H23
# NCI-H226 = test system: NCI-H226
# DU-145 = test system: DU-145
# MDA-N = test system: MDA-N
SMILES,GI50 (SK-MEL-5),GI50 (MOLT-4),GI50 (SF-295),GI50 (RPMI-8226),GI50 (OVCAR-4),GI50 (HOP-62),GI50 (HOP-92),GI50 (SNB-75),GI50 (786-0),GI50 (HCC 2998),GI50 (NCI-H460),GI50 (NCI-H522),GI50 (COLO 205),GI50 (SK-OV-3),GI50 (UACC-62),GI50 (SW-620),GI50 (NCI-H23),GI50 (NCI-H226),GI50 (DU-145),GI50 (MDA-N)
COc1ccc2c(c1)CC1c3c(ccc(OC)c3O)CC2N1C (configuration not stated),18.1 µM (inactive),23 µM (inactive),22.8 µM (inactive),20.9 µM (inactive),29.4 µM (inactive),> 92.3 µM (inactive),28.1 µM (inactive),38.3 µM (inactive),29.1 µM (inactive),16.8 µM (inactive),19.3 µM (inactive),19.7 µM (inactive),18.2 µM (inactive),62.7 µM (inactive),47.4 µM (inactive),21.5 µM (inactive),43.6 µM (inactive),86.1 µM (inactive),,
O=[N+]([O-])c1ccc(Cc2nc3cc4ccccc4cc3[nH]2)cc1C(F)(F)F,10.7 µM (inactive),13.1 µM (inactive),11.9 µM (inactive),,17.5 µM (inactive),13.8 µM (inactive),14.9 µM (inactive),14.9 µM (inactive),12.7 µM (inactive),16.6 µM (inactive),7.82 µM (inactive),20.4 µM (inactive),4.32 µM (inactive),13.5 µM (inactive),,19.8 µM (inactive),12.5 µM (inactive),,22.1 µM (inactive),
CN(CC#N)C1CCCC[C@H]1O (some centres not stated),> 100 µM (inactive),> 100 µM (inactive),> 100 µM (inactive),> 100 µM (inactive),> 100 µM (inactive),> 100 µM (inactive),> 100 µM (inactive),> 100 µM (inactive),> 100 µM (inactive),> 100 µM (inactive),> 100 µM (inactive),> 100 µM (inactive),> 100 µM (inactive),> 100 µM (inactive),> 100 µM (inactive),> 90.4 µM (inactive),> 100 µM (inactive),> 100 µM (inactive),,
CN(NC(=O)c1cccs1)C1=NCCCCN1,> 100 µM (inactive),> 100 µM (inactive),> 100 µM (inactive),> 100 µM (inactive),> 100 µM (inactive),> 100 µM (inactive),> 100 µM (inactive),> 100 µM (inactive),> 100 µM (inactive),> 100 µM (inactive),> 100 µM (inactive),> 100 µM (inactive),> 100 µM (inactive),> 100 µM (inactive),> 100 µM (inactive),> 100 µM (inactive),> 100 µM (inactive),> 100 µM (inactive),,> 100 µM (inactive)
O=C1NCCCNCCCNCCCNC(=O)c2cccc1n2,> 100 µM (inactive),> 100 µM (inactive),> 100 µM (inactive),> 100 µM (inactive),> 100 µM (inactive),> 100 µM (inactive),,> 100 µM (inactive),> 100 µM (inactive),> 100 µM (inactive),> 100 µM (inactive),> 100 µM (inactive),> 100 µM (inactive),> 100 µM (inactive),> 100 µM (inactive),> 100 µM (inactive),> 100 µM (inactive),> 100 µM (inactive),,> 100 µM (inactive)
CN(C)c1ccc(/C=c2\sc3nnc(Cc4ccccc4)n3c2=O)cc1,> 10 µM (inactive),> 10 µM (inactive),> 10 µM (inactive),> 10 µM (inactive),> 10 µM (inactive),> 10 µM (inactive),> 100 µM (inactive),> 10 µM (inactive),> 10 µM (inactive),> 100 µM (inactive),> 10 µM (inactive),> 10 µM (inactive),> 10 µM (inactive),> 10 µM (inactive),> 10 µM (inactive),13.7 µM (inactive),> 10 µM (inactive),> 10 µM (inactive),,
CC(=O)N/C(=C\c1cccc([N+](=O)[O-])c1)c1nc2ccc3c(c2[nH]1)C(=O)c1ccccc1C3=O,> 79.6 µM (inactive),8.04 µM (inactive),> 100 µM (inactive),5.04 µM (inactive),> 65.9 µM (inactive),78 µM (inactive),> 50.4 µM (inactive),21.3 µM (inactive),27.2 µM (inactive),> 100 µM (inactive),27.2 µM (inactive),9.89 µM (inactive),> 78.2 µM (inactive),13.6 µM (inactive),> 49.8 µM (inactive),31.9 µM (inactive),39.8 µM (inactive),> 100 µM (inactive),,
CCOc1ccc2nc(NC(=O)c3c/c(=N\NC(=O)C[N+](C)(C)C)c4ccc(O)cc4o3)sc2c1,0.555 µM (active),1.72 µM (inactive),3.38 µM (inactive),2.15 µM (inactive),1.74 µM (inactive),,1.72 µM (inactive),1.52 µM (inactive),3.62 µM (inactive),7.53 µM (inactive),3.04 µM (inactive),1.95 µM (inactive),1.63 µM (inactive),11.3 µM (inactive),1.65 µM (inactive),2.19 µM (inactive),1.59 µM (inactive),3.25 µM (inactive),,
